Columns and labels:
[1] = target: human activated kallikrein enzyme (Homo sapiens, UniProt P03952); assay: Plasma kallikrein inhibition, fluorogenic PFR-AMC substrate, 500 pM activated kallikrein format; type: biochemical; conditions: 500 pM activated kallikrein, 300 uM PFR-AMC, 30 min preincubation, 10 min reaction; read-out: Primary Dose Response Assay: Average EC50
How it was run: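 Fluorogenic readout (ex 380 / em 460 nm) after 10 min room-temperature reaction with 300 uM Pro-Phe-Arg-AMC substrate, following 30 min preincubation of inhibitors with 500 pM enzyme. Buffer: Tris pH 7.5, EDTA, NaCl, PEG-400, Triton X-100. Values given as EC50 ranges.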

plasma kallikrein = target: T1, plasma kallikrein (Homo sapiens, UniProt P03952); assay: Neat human plasma assay, FXIIa contact pathway-activated, PFR-AMC substrate; type: biochemical; conditions: citrated human plasma 78% final, 10 nM human FXIIa, 100 μM PFR-AMC; read-out: Human Plasma Assay: IC90
T1 construct: from tissue
How it was run: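 Compound inhibition of plasma kallikrein measured as PFR-AMC (100 μM) cleavage rate over 5 min at room temperature in 78% citrated human plasma activated with 10 nM FXIIa (Tris pH 7.5 buffer). IC50/IC90 from 4-parameter fit of rate versus inhibitor concentration.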

T1 sequence (P03952 391-638 limits assumed): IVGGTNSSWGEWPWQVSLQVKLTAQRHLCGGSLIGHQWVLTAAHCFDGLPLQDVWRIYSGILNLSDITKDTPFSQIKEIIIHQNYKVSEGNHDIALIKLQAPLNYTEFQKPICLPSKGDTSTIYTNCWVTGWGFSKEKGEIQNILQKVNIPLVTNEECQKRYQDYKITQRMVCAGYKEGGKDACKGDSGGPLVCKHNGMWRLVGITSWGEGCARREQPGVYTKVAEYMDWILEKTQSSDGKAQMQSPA
T1 sequence (P03952 20-390 partner limits assumed): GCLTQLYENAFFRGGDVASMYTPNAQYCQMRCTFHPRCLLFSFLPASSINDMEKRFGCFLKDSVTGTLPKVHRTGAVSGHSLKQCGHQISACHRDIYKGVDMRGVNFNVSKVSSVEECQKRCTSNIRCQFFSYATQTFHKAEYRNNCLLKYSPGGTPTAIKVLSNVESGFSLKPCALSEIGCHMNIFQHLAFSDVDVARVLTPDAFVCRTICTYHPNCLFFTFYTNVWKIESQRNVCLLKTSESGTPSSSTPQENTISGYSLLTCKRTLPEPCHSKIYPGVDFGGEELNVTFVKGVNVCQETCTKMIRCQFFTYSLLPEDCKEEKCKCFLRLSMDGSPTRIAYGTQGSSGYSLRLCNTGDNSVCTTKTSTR
Sequence of human activated kallikrein enzyme (P03952 391-638 limits assumed): as the sequence (P03952 391-638 limits assumed) above
Sequence of human activated kallikrein enzyme (P03952 20-390 partner limits assumed): as the sequence (P03952 20-390 partner limits assumed) above

Row | EC50 [1] [nM] | IC90 (plasma kallikrein) [nM] | Compound
1 | < 1 | 400 to 1500 | Cc1ccnc([C@H]2C[C@@H]2C(=O)Nc2cc(N3C[C@@H](O)C[C@@H]3c3cn4cc(C5CC5)cc(N5CC6CC6C5=O)c4n3)ncn2)n1 (relative stereo) [Example 482, rac-(1S*,2S*)—N-(6-((2R,4S)-2-(6-cyclopropyl-8-(2-oxo-3-azabicyclo[3.1.0]hexan-3-yl)imidazo[1,2-a]pyridin-2-yl)-4-hydroxypyrrolidin-1-yl)pyrimidin-4-yl)-2-(4-methylpyrimidin-2-yl)cyclopropane-1-carboxamide]
2 | < 1 | 400 to 1500 | CN1CCN(c2cc(C3CC3)cn3cc(CNc4ccnc(NC(=O)[C@H]5C[C@@H]5c5cccc(Cl)c5)c4)nc23)CC1=O [Example 130, (1S,2S)-2-(3-chlorophenyl)-N-(4-(((6-cyclopropyl-8-(4-methyl-3-oxopiperazin-1-yl)imidazo[1,2-a]pyridin-2-yl)methyl)amino)pyridin-2-yl)cyclopropane-1-carboxamide]
3 | < 1 | 400 to 1500 | CNC1CCN(c2cc(C3CC3)cn3cc(CNc4cc(NC(=O)[C@H]5C[C@@H]5c5cccc(Cl)c5)ncn4)nc23)C1 (stereo partly drawn) [Example I-16, (1S,2S)-2-(3-chlorophenyl)-N-(6-(((6-cyclopropyl-8-(3-(methylamino)pyrrolidin-1-yl)imidazo[1,2-a]pyridin-2-yl)methyl)amino)pyrimidin-4-yl)cyclopropane-1-carboxamide]
4 | < 1 | < 400 | Cc1ccnc([C@H]2C[C@@H]2C(=O)Nc2cc(OCc3cn4cc(C5CC5)cc(N5CC(=O)NC5=O)c4n3)ncn2)n1 [Example 32, (1S,2S)—N-(6-((6-cyclopropyl-8-(2,4-dioxoimidazolidin-1-yl)imidazo[1,2-a]pyridin-2-yl)methoxy)pyrimidin-4-yl)-2-(4-methylpyrimidin-2-yl)cyclopropane-1-carboxamide]
5 | < 1 | 400 to 1500 | O=C(Nc1cc(NCc2cn3cc(C4CC4)cc(N4CCN5CC(O)CC5C4)c3n2)ccn1)[C@H]1C[C@@H]1c1cccc(Cl)c1 (stereo partly drawn) [Example I-228, (1S,2S)-2-(3-chlorophenyl)-N-(4-(((6-cyclopropyl-8-(7-hydroxyhexahydropyrrolo[1,2-a]pyrazin-2(1H)-yl)imidazo[1,2-a]pyridin-2-yl)methyl)amino)pyridin-2-yl)cyclopropane-1-carboxamide]
6 | < 1 | 400 to 1500 | Cc1ccnc([C@H]2C[C@@H]2C(=O)Nc2cc(NCc3cn4cc(C5CC5)cc(N5CC(=O)N(C)C5=O)c4n3)nc(C3(O)COC3)n2)n1 (racemic) [Example 113, rac-(1S*,2S*)—N-(6-(((6-cyclopropyl-8-(3-methyl-2,4-dioxoimidazolidin-1-yl)imidazo[1,2-a]pyridin-2-yl)methyl)amino)-2-(3-hydroxyoxetan-3-yl)pyrimidin-4-yl)-2-(4-methylpyrimidin-2-yl)cyclopropane-1-carboxamide]
7 | < 1 | 400 to 1500 | Cc1ccnc([C@H]2C[C@@H]2C(=O)Nc2cc(N3C[C@@H](O)C[C@@H]3c3cn4cc(C5CC5)cc(N5CC(=O)NC5=O)c4n3)ncn2)n1 (relative stereo) [Example 474, rac-(1S*,2S*)-N-(6-((2R,4S)-2-(6-cyclopropyl-8-(2,4-dioxoimidazolidin-1-yl)imidazo[1,2-a]pyridin-2-yl)-4-hydroxypyrrolidin-1-yl)pyrimidin-4-yl)-2-(4-methylpyrimidin-2-yl)cyclopropane-1-carboxamide]
8 | < 1 | 1500 to 10000 | CN1CCN(C(=O)c2cc(C3CC3)cn3cc(CNc4cc(NC(=O)[C@H]5C[C@@H]5c5cccc(Cl)c5)ncn4)nc23)CC1 [Example 301, (1S,2S)-2-(3-chlorophenyl)-N-(6-(((6-cyclopropyl-8-(4-methylpiperazine-1-carbonyl)imidazo[1,2-a]pyridin-2-yl)methyl)amino)pyrimidin-4-yl)cyclopropane-1-carboxamide]
9 | < 1 | < 400 | O=C(Nc1cc(NCc2cn3cc(C4CC4)cc(N4CNCC4=O)c3n2)ncn1)[C@H]1C[C@@H]1c1cccc(Cl)c1 [Example I-19, (1S,2S)-2-(3-chlorophenyl)-N-(6-(((6-cyclopropyl-8-(5-oxoimidazolidin-1-yl)imidazo[1,2-a]pyridin-2-yl)methyl)amino)pyrimidin-4-yl)cyclopropane-1-carboxamide]
10 | < 1 | 1500 to 10000 | O=C(Nc1cc(NCc2cn3cc(C4CC4)ccc3n2)ccn1)[C@H]1C[C@@H]1c1cc(Cl)ccn1 (single isomer, unassigned) [Example I-270, rac-(1S*,2S*)-2-(4-chloropyridin-2-yl)-N-(4-(((6-cyclopropylimidazo[1,2-a]pyridin-2-yl)methyl)amino)pyridin-2-yl)cyclopropane-1-carboxamide]
11 | < 1 | < 400 | CN1CC(c2cc(C3CC3)cn3cc(CNc4ccnc(NC(=O)[C@H]5C[C@@H]5c5cccc(Cl)c5)c4)nc23)C1 [Example 609, (1S,2S)-2-(3-chlorophenyl)-N-(4-(((6-cyclopropyl-8-(1-methylazetidin-3-yl)imidazo[1,2-a]pyridin-2-yl)methyl)amino)pyridin-2-yl)cyclopropane-1-carboxamide]
12 | < 1 | 10000 to 48000 | CS(=O)(=O)Nc1cc(C2CC2)cn2cc(CNc3ccnc(NC(=O)[C@H]4C[C@@H]4c4cccc(Cl)c4)c3)nc12 [Example 126, (1S,2S)-2-(3-chlorophenyl)-N-(4-(((6-cyclopropyl-8-(methylsulfonamido)imidazo[1,2-a]pyridin-2-yl)methyl)amino)pyridin-2-yl)cyclopropane-1-carboxamide]
13 | < 1 | 400 to 1500 | N#Cc1ccc(Cl)cc1[C@H]1C[C@@H]1C(=O)Nc1cc(NCc2cn3cc(C4CC4)cc(N4CCCC4=O)c3n2)ccn1 (racemic) [Example 79, rac-(1S*2S*)-2-(5-chloro-2-cyanophenyl)-N-(4-(((6-cyclopropyl-8-(2-oxopyrrolidin-1-yl)imidazo[1,2-a]pyridin-2-yl)methyl)amino)pyridin-2-yl)cyclopropane-1-carboxamide]
14 | < 1 | < 400 | Cc1ccnc([C@H]2C[C@@H]2C(=O)Nc2cc(OCc3cn4cc(C5CC5)cc(N5CC(=O)N(CCN(C)C)C5=O)c4n3)nc(C)n2)n1 [Example 564, (1S,2S)-N-(6-((6-cyclopropyl-8-(3-(2-(dimethylamino)ethyl)-2,4-dioxoimidazolidin-1-yl)imidazo[1,2-a]pyridin-2-yl)methoxy)-2-methylpyrimidin-4-yl)-2-(4-methylpyrimidin-2-yl)cyclopropane-1-carboxamide]
15 | < 1 | 1500 to 10000 | O=C(Nc1cc(NCc2cn3cc(C4CC4)cc(N4CC5CC5C4=O)c3n2)ccn1)[C@H]1C[C@@H]1c1cccc(Cl)c1 (stereo partly drawn) [Example 95, (S,2S)-2-(3-chlorophenyl)-N-(4-(((6-cyclopropyl-8-(2-oxo-3-azabicyclo[3.1.0]hexan-3-yl)imidazo[1,2-a]pyridin-2-yl)methyl)amino)pyridin-2-yl)cyclopropane-1-carboxamide]
16 | < 1 | 400 to 1500 | Cc1ccnc([C@H]2C[C@@H]2C(=O)Nc2cc(NCc3cn4cc(C5CC5)cc(N5CC(=O)N(C)C5=O)c4n3)ncn2)c1 (racemic) [Example 393, rac-(1S*,2S*)-N-(6-(((6-cyclopropyl-8-(3-methyl-2,4-dioxoimidazolidin-1-yl)imidazo[1,2-a]pyridin-2-yl)methyl)amino)pyrimidin-4-yl)-2-(4-methylpyridin-2-yl)cyclopropane-1-carboxamide]
17 | < 1 | 1500 to 10000 | O=C(Nc1cc(NCc2cn3cc(C4CC4)ccc3n2)nc(=O)[nH]1)[C@H]1C[C@@H]1c1cccc(Cl)c1 [Example 296, (1S,2S)-2-(3-chlorophenyl)-N-(6-(((6-cyclopropylimidazo[1,2-a]pyridin-2-yl)methyl)amino)-2-oxo-2,3-dihydropyrimidin-4-yl)cyclopropane-1-carboxamide]
18 | < 1 | < 400 | Cc1cc(OCc2cn3cc(C4CC4)cc(N4CC(=O)N(C)C4=O)c3n2)cc(NC(=O)[C@H]2C[C@@H]2c2nccc(C)n2)n1 [Example 34, (1S,2S)—N-(4-((6-cyclopropyl-8-(3-methyl-2,4-dioxoimidazolidin-1-yl)imidazo[1,2-a]pyridin-2-yl)methoxy)-6-methylpyridin-2-yl)-2-(4-methylpyrimidin-2-yl)cyclopropane-1-carboxamide]
19 | < 1 | < 400 | COCCOCCN1C(=O)CN(c2cc(C3CC3)cn3cc(CNc4cc(NC(=O)[C@H]5C[C@@H]5c5nccc(C)n5)ncn4)nc23)C1=O [Example 382, (1S,2S)-N-(6-(((6-cyclopropyl-8-(3-(2-(2-methoxyethoxy)ethyl)-2,4-dioxoimidazolidin-1-yl)imidazo[1,2-a]pyridin-2-yl)methyl)amino)pyrimidin-4-yl)-2-(4-methylpyrimidin-2-yl)cyclopropane-1-carboxamide]
20 | < 1 | 400 to 1500 | CN1CC2(C1)CN(c1cc(C3CC3)cn3cc(CNc4ccnc(NC(=O)[C@H]5C[C@@H]5c5cccc(Cl)c5)c4)nc13)C2 [Example 140, (1S,2S)-2-(3-chlorophenyl)-N-(4-(((6-cyclopropyl-8-(6-methyl-2,6-diazaspiro[3.3]heptan-2-yl)imidazo[1,2-a]pyridin-2-yl)methyl)amino)pyridin-2-yl)cyclopropane-1-carboxamide]

Source: patent US20240228488A1 (TAKEDA PHARMACEUTICAL COMPANY LIMITED, priority 2021, published 2024)
